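96-well plates; 48 h exposure; 5 concentrations. Endpoints by linear interpolation between flanking doses. Not reached: highest tested concentration assigned. GI50: concentration for 50% inhibition of growth. TGI denotes the concentration required for complete inhibition of growth.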
How the values were obtained:
Experiment in all cases: NCI-60 cell line screen, 48 h
[1] = system: SN12C renal
[2] = system: A498 renal
[3] = system: UACC-257 melanoma
[4] = system: SK-MEL-5 melanoma
[5] = system: MALME-3M melanoma
[6] = system: SNB-19 CNS
[7] = system: SR leukemia
[8] = system: OVCAR-3 ovarian
[9] = system: SNB-75 CNS
[10] = system: MDA-MB-231 breast

In the case of COc1cccc2c1C(=O)c1c(O)c3c(c(O)c1C2=O)C[C@@](O)(C(C)=O)CC3S(=O)(=O)O (stereo partly specified), the TGI [1] is reported as > 100 µM, the TGI [2] is reported as > 100 µM and the TGI [3] is reported as > 100 µM. For the same molecule, the TGI [4] was > 100 µM, the TGI [5] was > 100 µM and the TGI [6] was > 100 µM. For the same molecule, the TGI [7] was > 100 µM, the TGI [8] was > 100 µM and the TGI [9] was > 93 µM.

With Cc1ccc(Cc2cc(N3CCN(c4cccc(Cl)c4)CC3)nnc2C)cc1 the TGI [1] was > 100 µM, the TGI [10] was > 100 µM and the TGI [2] was > 100 µM. The TGI [3] was > 100 µM, the TGI [4] was 41.6 µM and the TGI [6] was > 100 µM. For the same molecule, the TGI [8] was > 100 µM and the TGI [9] was > 100 µM.

In the case of CCOC(=O)c1c(NS(=O)(=O)c2ccc(C)cc2)sc2c1CCCC2, the TGI [1] is reported as > 100 µM, the TGI [10] is reported as 72.8 µM and the TGI [2] is reported as > 100 µM. For the same molecule, the TGI [3] was > 100 µM, the TGI [4] was > 100 µM and the TGI [6] was > 100 µM. The TGI [8] was 47.5 µM and the TGI [9] was 66.7 µM.

With CC1(C)OC[C@H](C(=N)OCc2ccccc2)O1 the TGI [1] was > 100 µM, the TGI [2] was > 100 µM and the TGI [3] was > 100 µM. For the same molecule, the TGI [4] was > 100 µM, the TGI [5] was > 100 µM and the TGI [6] was > 100 µM. The TGI [7] was > 100 µM, the TGI [8] was > 100 µM and the TGI [9] was > 100 µM.

For CN(C)C(=O)Oc1c(Br)cc(Br)cc1C(=O)OCc1ccccc1, the TGI [1] was 52.8 µM, the TGI [2] was 71.4 µM and the TGI [3] was 60.2 µM. For the same molecule, the TGI [4] was 17.7 µM, the TGI [5] was 55.3 µM and the TGI [6] was > 100 µM. The TGI [8] was 48 µM and the TGI [9] was 97 µM.

COc1cc(C2c3cc4c(cc3OC(NNC(N)=O)C2C)OCO4)cc(OC)c1OC (stereo unspecified) was tested, and the TGI [1] was > 100 µM, the TGI [10] was 7.25 µM and the TGI [2] was 0.0599 µM. The TGI [3] was > 100 µM, the TGI [4] was 22.8 µM and the TGI [5] was > 100 µM. For the same molecule, the TGI [6] was > 100 µM and the TGI [9] was > 87.9 µM.

Molecule CCc1cc(C)cc2[n+]1CC=C2 has a TGI [1] of 78.6 µM, a TGI [3] of 39.7 µM and a TGI [5] of 67.5 µM. For the same molecule, the TGI [6] was > 100 µM and the TGI [9] was 70.6 µM.

CCC(C)(C)c1cc(O)c(C(C)(C)CC)cc1O was tested, and the GI50 [1] was 3.2 µM, the TGI [1] was 16.4 µM and the GI50 [10] was 2.35 µM. For the same molecule, the TGI [10] was 8.04 µM, the GI50 [2] was 0.732 µM and the TGI [2] was 8.5 µM. The GI50 [3] was 3.44 µM, the TGI [3] was 12.1 µM and the GI50 [4] was 2.2 µM. The TGI [4] was 5.26 µM, the GI50 [6] was 2.69 µM and the TGI [6] was 12.6 µM. For the same molecule, the GI50 [8] was 2.78 µM, the TGI [8] was 7.54 µM and the GI50 [9] was 3.14 µM. For the same molecule, the TGI [9] was 16.5 µM.

For CCOC(=O)c1[nH]cc(C)c1-c1cccn1-c1ccc(Cl)cc1[N+](=O)[O-], the TGI [1] was 64.7 µM, the TGI [10] was 27.5 µM and the TGI [2] was > 100 µM. The TGI [3] was 67.8 µM, the TGI [4] was 28.1 µM and the TGI [8] was 29.5 µM. It also gave a TGI [9] of 56.1 µM.

O=c1[nH]c(=O)c2ncn(-c3ccc([N+](=O)[O-])cn3)c2[nH]1 was tested, and the TGI [1] was > 100 µM, the TGI [10] was > 100 µM and the TGI [2] was > 100 µM. The TGI [3] was > 100 µM, the TGI [4] was > 100 µM and the TGI [6] was > 100 µM. For the same molecule, the TGI [8] was > 100 µM and the TGI [9] was > 100 µM.

With COC(C/C(=C/CO[Si](C(C)C)(C(C)C)C(C)C)C(=O)N(C(=O)OC(C)(C)C)c1ccccc1I)OC the TGI [1] was > 100 µM, the TGI [2] was > 100 µM and the TGI [3] was > 100 µM. The TGI [4] was > 100 µM, the TGI [6] was > 100 µM and the TGI [7] was > 100 µM. For the same molecule, the TGI [8] was > 100 µM and the TGI [9] was > 100 µM.

CC[C@@]1(O)C[C@H](OC2CC(N(C)C)C(O)C(C)O2)c2c(cc3c(c2O)C(=O)c2c(O)ccc(O)c2C3=O)[C@H]1C(=O)OC (stereo partly specified) showed a TGI [1] of 1.47 µM, a TGI [2] of 0.239 µM and a TGI [3] of 0.317 µM. The TGI [4] was 0.461 µM, the TGI [5] was 0.304 µM and the TGI [6] was 2.91 µM. It also gave a TGI [8] of 0.924 µM and a TGI [9] of 0.354 µM.

In the case of CN1CCN(C(=O)CCC(=O)Nc2cc3c(c4ccccc24)-c2ccc4ccccc4c2C3)CC1, the TGI [1] is reported as 3.64 µM, the TGI [10] is reported as 2.93 µM and the TGI [2] is reported as 27.6 µM. It also gave a TGI [3] of 3.24 µM, a TGI [4] of 3 µM and a TGI [5] of 3.71 µM. For the same molecule, the TGI [6] was 3.93 µM and the TGI [8] was 3.22 µM.

For COC1OCC(O)C(NC(=O)N(C)N=O)C1O (stereo unspecified), the TGI [1] was > 100 µM, the TGI [2] was > 100 µM and the TGI [3] was > 100 µM. The TGI [4] was > 100 µM, the TGI [5] was > 100 µM and the TGI [6] was > 100 µM. For the same molecule, the TGI [8] was > 100 µM and the TGI [9] was > 100 µM.

Nn1c(Nc2ccc(S(N)(=O)=O)cc2)nnc(/C=C/c2c(O)ccc3ccccc23)c1=O was tested, and the TGI [1] was 27.3 µM, the TGI [2] was 73.6 µM and the TGI [3] was 92.8 µM. The TGI [4] was 28.7 µM, the TGI [5] was 49.7 µM and the TGI [6] was > 100 µM. It also gave a TGI [7] of 25.1 µM and a TGI [8] of 42.8 µM.

CCCCCCSc1nc(N)nc2nc[nH]c12 was tested, and the TGI [1] was > 100 µM, the TGI [2] was > 100 µM and the TGI [3] was > 100 µM. For the same molecule, the TGI [4] was > 62.5 µM, the TGI [5] was > 100 µM and the TGI [6] was > 100 µM. For the same molecule, the TGI [8] was > 100 µM and the TGI [9] was 71.7 µM.

In the case of CN(C)CCNC(=O)c1cccc2ccc(-c3ccc(Br)cc3)nc12, the TGI [1] is reported as 13.5 µM, the TGI [2] is reported as 5.49 µM and the TGI [3] is reported as 10.7 µM. It also gave a TGI [4] of 2.92 µM, a TGI [5] of 8.68 µM and a TGI [6] of 16.7 µM. It also gave a TGI [8] of 12.6 µM and a TGI [9] of 10.7 µM.

In the case of CC(=O)C(=O)NC1/C=C(C)\C=C/C(O)C/C=C(C)\C=C/C(O)CC2OC(=O)C1(C)C(=O)C2C (stereo unspecified), the TGI [1] is reported as > 100 µM, the TGI [2] is reported as > 100 µM and the TGI [3] is reported as > 100 µM. The TGI [4] was > 100 µM, the TGI [5] was > 100 µM and the TGI [6] was > 100 µM. For the same molecule, the TGI [8] was > 100 µM and the TGI [9] was > 100 µM.

In the case of Nc1nc(Cl)cc(OCC2(CO)CCCC2)n1, the TGI [1] is reported as > 100 µM, the TGI [2] is reported as > 100 µM and the TGI [3] is reported as > 100 µM. The TGI [4] was > 100 µM, the TGI [5] was > 100 µM and the TGI [6] was > 100 µM. The TGI [8] was > 100 µM and the TGI [9] was > 100 µM.

With CCOC(=O)c1nc2ccc(OC)cc2c2c1Cc1ccccc1-2 the TGI [1] was > 100 µM, the TGI [3] was > 100 µM and the TGI [4] was > 100 µM. The TGI [5] was > 100 µM, the TGI [6] was > 100 µM and the TGI [7] was > 100 µM. For the same molecule, the TGI [8] was > 100 µM and the TGI [9] was > 100 µM.

Reference: PubChem BioAssay (NCI)
